What is called microsomal CLint is a measure of how fast metabolising enzymes remove a compound, apart from limits set by blood flow. In general, IC50 refers to the concentration at which inhibition is half-maximal. The GI50 is the concentration that inhibits growth by half. The term EC50 denotes the concentration giving half of the maximal effect.

The record followed here is PMC9234961 (Journal of Medicinal Chemistry, 2022).

A short description of data set [1]: Microsomal clearance assay (MLM). The class given is in vitro ADME. The following applies: female, CD1, pH 7.4; mouse liver microsomes, 1 μM compound. The procedure, abridged:
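Compound (1 µM) was incubated at 37 °C with female CD1 mouse, female Sprague–Dawley rat or mixed-gender human liver microsomes (0.5 mg/mL protein) in 10 mmol/L phosphate, pH 7.4, with 3 mmol/L MgCl2. After 10 min preincubation, 1 mmol/L NADPH started the reaction. Samples taken up to 30 min were methanol-quenched and analysed by LC-MS.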
On the technique in general: Microsomes from liver hold many membrane-bound enzymes, among them those of drug oxidation.

The nature of data set [2]: Microsomal clearance assay (RLM). The class given is in vitro ADME. The following applies: rat liver microsomes, 1 μM compound. How it is done:
6. Supplementary experimental: in vitro DMPK assays
6.1 Microsomal clearance assay
Microsomal clearance was determined in female CD1 mice, female Sprague–Dawley rats, and mixed gender human liver microsomes obtained from BioIVT (Peterborough, U.K.) following incubation of 1 μM compound at 37 °C in 0.5 mg/mL microsomal protein, 3 mmol/L MgCl2, 1 mmol/L NADPH, 2.5 mmol/L and 10 mmol/L phosphate buffer (pH 7.4) (all purchased from Sigma-Aldrich, Gillingham, U.K). Reactions were started by addition of the cofactors following 10 min preincubation of microsomes with test compound and were terminated at −1, 0, 5, 10, 15, and 30 min with three volumes of ice-cold methanol containing internal standard. Samples were centrifuged at 2800g for 30 min at 4 °C and the supernatants analyzed.
Control incubations were prepared as above with omission of cofactors. Compound measurements were […]
separation with a 3 min gradient of 0.1% formic acid in methanol on a Kinetex C18, 50 × 2.1 mm 2.6 μm UPLC column (Phenomenex, Macclesfield, UK). […]

A further data set is described as follows: in vitro. The class given is in vitro ADME. Conditions: BALB/c; mouse plasma, rapid equilibrium dialysis; read-out: mouse (BALB\c) PPB (converted).
The target of the next data set is LCK (Homo sapiens, UniProt P06239). Put plainly: SAFETYScan Kinases Binding, Inhibitor. From the text:
(§1) Supplement jm1c02175_si_002.xlsx, sheet "SAFETYScan" | column: RC50 (uM); Max Response

A further data set has as its target VEGFR2 (Homo sapiens, UniProt P35968). Put plainly: SAFETYScan Kinases Binding, Inhibitor.
From the text: as §1

In the next data set the target is ROCK1 (Homo sapiens, UniProt Q13464). Briefly: SAFETYScan Kinases Binding, Inhibitor.
Sequence of ROCK1 (Q13464 whole entry, species assumed): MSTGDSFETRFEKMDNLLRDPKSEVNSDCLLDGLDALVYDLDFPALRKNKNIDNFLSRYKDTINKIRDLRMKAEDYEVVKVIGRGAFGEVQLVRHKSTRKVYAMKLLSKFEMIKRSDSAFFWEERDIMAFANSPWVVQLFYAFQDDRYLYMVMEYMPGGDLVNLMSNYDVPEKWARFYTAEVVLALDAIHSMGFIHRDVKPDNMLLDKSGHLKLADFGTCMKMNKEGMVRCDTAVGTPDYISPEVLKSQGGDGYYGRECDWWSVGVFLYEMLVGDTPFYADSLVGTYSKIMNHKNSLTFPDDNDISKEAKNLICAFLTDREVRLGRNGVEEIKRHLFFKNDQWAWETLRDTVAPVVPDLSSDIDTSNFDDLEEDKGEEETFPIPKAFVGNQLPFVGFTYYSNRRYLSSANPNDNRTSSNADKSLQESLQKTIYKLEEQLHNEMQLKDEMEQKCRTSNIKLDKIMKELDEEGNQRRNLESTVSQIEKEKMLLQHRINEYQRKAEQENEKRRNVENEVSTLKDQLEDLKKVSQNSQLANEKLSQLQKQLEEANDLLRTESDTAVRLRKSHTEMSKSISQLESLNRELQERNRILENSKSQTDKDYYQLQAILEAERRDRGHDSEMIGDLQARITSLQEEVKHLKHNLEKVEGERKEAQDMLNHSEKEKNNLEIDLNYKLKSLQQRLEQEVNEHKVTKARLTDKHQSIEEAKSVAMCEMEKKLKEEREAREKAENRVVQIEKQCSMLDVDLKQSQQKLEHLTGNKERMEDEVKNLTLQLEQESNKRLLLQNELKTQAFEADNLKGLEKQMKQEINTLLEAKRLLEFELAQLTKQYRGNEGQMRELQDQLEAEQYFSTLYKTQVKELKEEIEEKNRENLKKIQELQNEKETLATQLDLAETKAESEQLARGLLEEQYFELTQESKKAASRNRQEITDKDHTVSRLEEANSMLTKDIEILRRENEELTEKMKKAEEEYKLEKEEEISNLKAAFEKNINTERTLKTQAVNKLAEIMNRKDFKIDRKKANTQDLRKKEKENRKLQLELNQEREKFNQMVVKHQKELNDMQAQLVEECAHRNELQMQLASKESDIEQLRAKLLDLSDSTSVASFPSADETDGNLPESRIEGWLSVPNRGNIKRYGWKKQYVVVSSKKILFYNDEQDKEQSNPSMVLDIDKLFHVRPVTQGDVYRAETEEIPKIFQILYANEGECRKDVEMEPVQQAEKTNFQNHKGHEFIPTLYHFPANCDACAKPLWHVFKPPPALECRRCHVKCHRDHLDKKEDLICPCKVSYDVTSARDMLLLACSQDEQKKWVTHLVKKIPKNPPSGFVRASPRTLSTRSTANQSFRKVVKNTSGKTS
From the text: as §1

In the next data set the target is INSR (Homo sapiens, UniProt P06213). Briefly: SAFETYScan Kinases Binding, Inhibitor.
Sequence of INSR (P06213 28-1382, species assumed): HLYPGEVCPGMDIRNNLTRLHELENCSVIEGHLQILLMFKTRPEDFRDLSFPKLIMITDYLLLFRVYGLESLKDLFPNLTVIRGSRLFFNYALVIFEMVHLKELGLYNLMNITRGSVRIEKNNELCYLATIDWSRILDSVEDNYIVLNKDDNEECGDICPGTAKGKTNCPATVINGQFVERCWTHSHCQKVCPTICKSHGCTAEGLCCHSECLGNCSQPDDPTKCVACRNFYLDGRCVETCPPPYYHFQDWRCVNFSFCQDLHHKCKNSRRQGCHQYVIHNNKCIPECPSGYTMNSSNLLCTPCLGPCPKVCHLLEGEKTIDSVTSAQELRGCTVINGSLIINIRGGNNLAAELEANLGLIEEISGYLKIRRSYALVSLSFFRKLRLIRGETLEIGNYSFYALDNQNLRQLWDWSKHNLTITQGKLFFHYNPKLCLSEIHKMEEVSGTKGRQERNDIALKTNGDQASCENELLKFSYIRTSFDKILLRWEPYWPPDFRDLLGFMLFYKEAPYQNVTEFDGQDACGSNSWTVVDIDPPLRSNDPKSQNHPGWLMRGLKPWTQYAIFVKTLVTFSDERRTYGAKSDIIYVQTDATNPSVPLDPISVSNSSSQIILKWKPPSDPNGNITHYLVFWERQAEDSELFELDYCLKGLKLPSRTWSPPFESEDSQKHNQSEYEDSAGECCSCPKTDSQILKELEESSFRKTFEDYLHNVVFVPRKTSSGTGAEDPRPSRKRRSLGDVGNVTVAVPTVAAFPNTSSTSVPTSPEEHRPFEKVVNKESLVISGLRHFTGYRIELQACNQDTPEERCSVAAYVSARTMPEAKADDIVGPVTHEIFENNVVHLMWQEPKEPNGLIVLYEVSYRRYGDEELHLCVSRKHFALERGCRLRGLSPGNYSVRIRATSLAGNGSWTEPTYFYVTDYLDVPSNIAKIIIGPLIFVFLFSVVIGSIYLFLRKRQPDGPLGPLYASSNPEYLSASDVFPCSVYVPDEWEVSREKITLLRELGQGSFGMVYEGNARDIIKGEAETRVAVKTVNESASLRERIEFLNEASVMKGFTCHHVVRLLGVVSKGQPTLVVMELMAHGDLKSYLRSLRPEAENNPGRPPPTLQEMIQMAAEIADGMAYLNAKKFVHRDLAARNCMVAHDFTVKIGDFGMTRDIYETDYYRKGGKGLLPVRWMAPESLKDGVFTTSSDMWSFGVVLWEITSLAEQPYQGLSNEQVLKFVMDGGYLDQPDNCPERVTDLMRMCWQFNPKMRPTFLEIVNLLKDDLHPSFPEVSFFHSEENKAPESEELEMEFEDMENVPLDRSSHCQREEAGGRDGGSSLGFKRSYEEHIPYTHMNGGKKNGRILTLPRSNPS
From the text: as §1

The subject of another data set is Karpas 422. Briefly: Cell proliferation assay (14 days), Karpas 422.
Another data set concerns the target T1, AR (Homo sapiens, UniProt P10275).
T1 sequence (P10275 1-920): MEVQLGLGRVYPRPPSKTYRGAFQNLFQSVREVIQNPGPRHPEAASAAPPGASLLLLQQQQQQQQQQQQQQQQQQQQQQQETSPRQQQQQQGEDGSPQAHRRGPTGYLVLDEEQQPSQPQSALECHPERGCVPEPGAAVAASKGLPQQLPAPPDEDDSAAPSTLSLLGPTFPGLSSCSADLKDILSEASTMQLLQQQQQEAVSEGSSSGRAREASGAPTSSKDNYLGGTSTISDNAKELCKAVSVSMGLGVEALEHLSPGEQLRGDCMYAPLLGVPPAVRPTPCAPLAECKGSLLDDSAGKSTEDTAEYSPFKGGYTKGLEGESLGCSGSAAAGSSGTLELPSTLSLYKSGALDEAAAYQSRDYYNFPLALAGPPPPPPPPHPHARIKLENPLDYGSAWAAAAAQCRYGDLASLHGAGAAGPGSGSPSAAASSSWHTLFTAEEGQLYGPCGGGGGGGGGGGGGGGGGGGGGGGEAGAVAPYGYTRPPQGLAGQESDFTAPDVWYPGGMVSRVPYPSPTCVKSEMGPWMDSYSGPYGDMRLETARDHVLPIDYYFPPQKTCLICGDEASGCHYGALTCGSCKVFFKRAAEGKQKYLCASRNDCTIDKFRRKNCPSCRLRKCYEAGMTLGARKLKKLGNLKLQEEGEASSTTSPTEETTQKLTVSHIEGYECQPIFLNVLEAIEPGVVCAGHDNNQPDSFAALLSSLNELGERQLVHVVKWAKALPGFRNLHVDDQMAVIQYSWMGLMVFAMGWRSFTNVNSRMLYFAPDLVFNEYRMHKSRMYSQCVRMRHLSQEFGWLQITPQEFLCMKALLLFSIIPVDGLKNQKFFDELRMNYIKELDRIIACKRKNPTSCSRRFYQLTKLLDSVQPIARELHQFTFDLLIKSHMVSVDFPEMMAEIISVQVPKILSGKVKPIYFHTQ
Put plainly: SAFETYScan NHR Nuclear Translocation, Agonist. The class given is cell-based.
From the text: as §1

For the next data set, the system named is OCI-Ly1. Put plainly: Cell proliferation assay (14 days), OCI-Ly1.

Sequence of VEGFR2 (P35968 20-1356, species assumed): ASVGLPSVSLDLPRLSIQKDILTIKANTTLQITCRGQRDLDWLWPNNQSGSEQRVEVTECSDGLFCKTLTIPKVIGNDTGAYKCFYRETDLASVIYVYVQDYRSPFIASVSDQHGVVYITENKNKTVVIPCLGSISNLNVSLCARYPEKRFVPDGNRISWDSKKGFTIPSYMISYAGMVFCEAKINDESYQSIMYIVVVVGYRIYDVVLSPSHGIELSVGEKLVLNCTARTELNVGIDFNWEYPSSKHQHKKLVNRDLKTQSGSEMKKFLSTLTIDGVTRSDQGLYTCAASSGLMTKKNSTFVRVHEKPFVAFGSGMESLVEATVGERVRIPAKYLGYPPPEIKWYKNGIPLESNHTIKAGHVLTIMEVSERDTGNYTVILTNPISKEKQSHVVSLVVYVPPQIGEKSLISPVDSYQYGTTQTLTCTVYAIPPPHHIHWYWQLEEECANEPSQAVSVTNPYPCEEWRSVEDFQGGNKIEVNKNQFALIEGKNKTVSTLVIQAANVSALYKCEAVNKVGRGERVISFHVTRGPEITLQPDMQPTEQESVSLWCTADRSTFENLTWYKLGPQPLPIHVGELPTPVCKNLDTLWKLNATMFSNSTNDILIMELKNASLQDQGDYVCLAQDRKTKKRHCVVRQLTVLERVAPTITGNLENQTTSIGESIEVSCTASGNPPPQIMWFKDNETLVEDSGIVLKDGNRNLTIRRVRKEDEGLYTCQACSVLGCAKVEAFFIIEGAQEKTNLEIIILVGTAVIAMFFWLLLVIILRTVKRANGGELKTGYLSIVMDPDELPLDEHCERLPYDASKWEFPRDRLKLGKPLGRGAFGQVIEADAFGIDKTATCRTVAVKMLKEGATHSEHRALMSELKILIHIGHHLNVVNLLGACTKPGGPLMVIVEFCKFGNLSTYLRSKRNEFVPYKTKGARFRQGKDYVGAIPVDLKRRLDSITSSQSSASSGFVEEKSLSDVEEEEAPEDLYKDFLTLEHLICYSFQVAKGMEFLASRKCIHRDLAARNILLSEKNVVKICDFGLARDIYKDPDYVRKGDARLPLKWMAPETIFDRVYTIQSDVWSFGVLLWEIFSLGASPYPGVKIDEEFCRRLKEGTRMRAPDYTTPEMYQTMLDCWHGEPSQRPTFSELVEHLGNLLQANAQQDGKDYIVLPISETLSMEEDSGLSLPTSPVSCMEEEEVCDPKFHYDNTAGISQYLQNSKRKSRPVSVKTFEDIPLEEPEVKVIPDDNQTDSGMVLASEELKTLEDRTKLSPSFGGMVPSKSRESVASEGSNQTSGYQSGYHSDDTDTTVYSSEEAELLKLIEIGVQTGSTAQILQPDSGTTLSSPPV
Sequence of LCK (P06239 whole entry, species assumed): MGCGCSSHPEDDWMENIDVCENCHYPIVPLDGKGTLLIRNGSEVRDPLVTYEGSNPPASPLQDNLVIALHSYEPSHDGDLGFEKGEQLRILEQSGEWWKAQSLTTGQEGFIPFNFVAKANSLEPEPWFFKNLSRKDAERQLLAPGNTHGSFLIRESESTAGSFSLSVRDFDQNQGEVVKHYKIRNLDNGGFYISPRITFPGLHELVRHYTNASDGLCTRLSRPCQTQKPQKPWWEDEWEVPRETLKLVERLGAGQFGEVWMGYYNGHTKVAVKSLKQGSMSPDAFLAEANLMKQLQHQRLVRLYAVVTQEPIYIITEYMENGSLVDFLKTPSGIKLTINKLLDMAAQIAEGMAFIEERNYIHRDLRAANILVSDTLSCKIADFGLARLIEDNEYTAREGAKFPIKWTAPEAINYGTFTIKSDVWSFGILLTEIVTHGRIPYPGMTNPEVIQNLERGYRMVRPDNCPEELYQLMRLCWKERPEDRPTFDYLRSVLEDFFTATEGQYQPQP
Experimental for Karpas 422: (§2) Cells were seeded in 96-well culture plates at a density of 2500 cells/well in RPMI-1640 medium (Sigma-
(§3) Aldrich) supplemented with 10% FBS (Gibco). Compounds were initially dispensed into 96-well U-bottom
(§4) plates using an Echo 550 acoustic dispenser (Labcyte Inc.), then diluted in RPMI-1640 medium and
(§5) transferred onto the cells. Cells were treated with 8 compound concentrations in duplicate, ranging from
(§6) with compound for 14 days, with medium changes at days 3, 7 and 10 carried out as follows: fresh 96-well
(§7) cell culture plates were prepared containing 100 µl medium plus compound at the assay concentrations
(§8) (white plates were used on day 10 to optimise luminescence measurement). Assay plates containing cells
(§9) were vortexed to mix and cell density in one control well was counted using a Coulter Z2 cell counter
(§10) (Beckman Coulter). The volume of medium containing 2500 cells in the control well was calculated and this volume of cells was transferred from every well of the assay plates to the corresponding well of the fresh plates containing compound. After 14 days, CellTiter Glo reagent (Promega) was added to the medium in each well of the assay plate at a ratio of 1:2, mixed on a plate shaker, then incubated at room temperature for 10 minutes. Luminescence was measured using an Envision plate reader (Perkin Elmer) and the relative luminescence at each compound concentration, compared to DMSO alone, was calculated. GI50 were determined using a 4-parameter curve fit in Dotmatics (Bishops Stortford, UK).
Experimental for OCI-Ly1: as §2, §3, §4, §5, §6, §7, §8, §9, §10

In the case of `C[C@H]1C[C@@H](O)CN(c2ncc(Cl)c(Nc3ccc4c(c3)c3c(c(=O)n4C)OCC(F)(F)[C@H](C4CC4)N3)n2)C1` [12a CCT373566, (S)-10-((5-Chloro-2-((3R,5S)-3-hydroxy-5-methylpiperidin-1-yl)pyrimidin-4-yl)amino)-2-cyclopropyl-3,3-difluoro-7-methyl-1,2,3,4-tetrahydro-[1,4]oxazepino[2,3-c]quinolin-6(7H)-one], the microsomal CLint at 0.5 h, 1 µM in data set [1] was determined as 116 µL/min/mg; in data set [2] (female, Sprague-Dawley, pH 7.4) it was 3 µL/min/mg. Besides, the “CLint (RLM)” value in data set [2] is on record as “low clearance”. In “in vitro”, the fraction unbound is 0.0012. For the same compound, the Emax at LCK (read-out: Max Response) is 1.52%; at VEGFR2 (read-out: Max Response), 15.8%; on ROCK1 (read-out: Max Response), 14.9%; at INSR (read-out: Max Response), 0%; on AR (read-out: Max Response), 0%. Further, the IC50 at LCK (read-out: RC50 (IC50)), at VEGFR2 (read-out: RC50 (IC50)), at ROCK1 (read-out: RC50 (IC50)) and on INSR (read-out: RC50 (IC50)) was greater than 10 µM in each case. In addition, the “Karpas 422 GI50” value with Karpas 422 (14-day proliferation assay) is “Very potent growth inhibition”. Also, the GI50 in the data set with Karpas 422 (Homo sapiens, KARPAS-422, 336 h, read-out: Karpas 422 GI50) worked out at 0.0014 µM; in the data set on OCI-Ly1 (Homo sapiens, OCI-Ly1, 336 h, read-out: OCI-Ly1 GI50), 0.0021 µM. In addition, the EC50 at AR (read-out: RC50 (EC50)) is greater than 10 µM. Also, the “OCI-Ly1 GI50” value with OCI-Ly1 (14-day proliferation assay) is recorded as “Very potent growth inhibition”.
